The target in the assay is T1, human GPR119 (hGPR119) (Homo sapiens, UniProt Q8TDV5).
T1 construct: expressed in transfected cells; host or cells: CHO-K1
T1 sequence (Q8TDV5 1-335): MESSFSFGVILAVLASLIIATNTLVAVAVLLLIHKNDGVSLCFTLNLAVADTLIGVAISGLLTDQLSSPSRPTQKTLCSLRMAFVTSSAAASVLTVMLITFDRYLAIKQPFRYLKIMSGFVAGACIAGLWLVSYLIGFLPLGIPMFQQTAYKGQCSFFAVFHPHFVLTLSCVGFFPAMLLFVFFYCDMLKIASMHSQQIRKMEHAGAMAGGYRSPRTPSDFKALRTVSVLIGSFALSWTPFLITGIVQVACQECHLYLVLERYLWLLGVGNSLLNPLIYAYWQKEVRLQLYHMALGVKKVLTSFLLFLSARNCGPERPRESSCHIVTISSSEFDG
The experiment in a line: cAMP accumulation assay in CHO-K1 cells stably expressing hGPR119. The following applies: cAMP HTRF, 60 minutes. The class given is cell-based. The procedure: CHO-K1 cells stably expressing human GPR119 (hGPR119) were prepared by transfection of a GPR119-carrying plasmid using Lipofectamine 2000 (following manufacturer instructions). A stable cell line was established using the limiting dilution method with geneticine selection. Assay-ready frozen (ARF) cells were prepared and used throughout the study.
The assay was performed in a 384-well plate format using the CAMP Gs dynamic assay kit from Cisbio. ARF cells expressing hGPR119 were thawed, washed and then resuspended in CAMP stimulation buffer at a cell density of 1.1×10^6 cells/mL. Cells were plated at a density of ~10,000 cells/well (9 μL/well). Dose response curves for the tested compounds were prepared in a cAMP stimulation buffer, containing 0.1% Tween 80 at 4 fold the final concentration. The compounds were then transferred to the cell plates using BRAVO (3 μL/well) and the plates were incubated for 60 minutes at 37° C./5% CO2. Detection buffer (10 μL, prepared as described in the CAMP Gs dynamic kit) were added to each well, and the plates were incubated at ambient temperature for 1 hr.
RT-FRET was measured using a ClarioSTAR plate reader, calculating the ratio between emissions at 665 nm and 620 nm (HTRF ratio). The HTRF ratio for positive (Max) and negative (Min) controls were used to normalize HTRF data and generate values for % activity. EC50 and Max activity values were determined using a standard 4-parameter fit.
On the technique in general: cAMP levels reflect the balance of adenylyl cyclase and phosphodiesterase activity.

Each structure is given as a SMILES string.

As for `CCCc1cnc(N2CCC(CCCOc3ccc(CC(=O)N4CC(CNC[C@H](O)[C@@H](O)[C@H](O)[C@H](O)CO)C4)c(F)c3)CC2)nc1` [Compound A44, 2-(2-fluoro-4-(3-(1-(5-propylpyrimidin-2-yl)piperidin-4-yl)propoxy)phenyl)-1-(3-((((2S,3R,4R,5R)-2,3,4,5,6-pentahydroxyhexyl)amino)methyl)azetidin-1-yl)ethan-1-one], the EC50 lay in the range of 100 to 1000 nM.
As for `CCCc1cnc(N2CCC(CCCOc3cc(F)c(CC(=O)N4CC(CNCC(O)(CO)CO)C4)c(F)c3)CC2)nc1` [Compound A45, 2-(2,6-difluoro-4-(3-(1-(5-propylpyrimidin-2-yl)piperidin-4-yl)propoxy)phenyl)-1-(3-(((2,3-dihydroxy-2-(hydroxymethyl)propyl)amino)methyl)azetidin-1-yl)ethan-1-one], the EC50 was ≤ 100 nM.
The figure for `CCCc1cnc(N2CCC(CCCOc3cc(F)c(CC(=O)N4CC(CNC(CO)(CO)CO)C4)c(F)c3)CC2)nc1` [Compound A46, 2-(2,6-difluoro-4-(3-(1-(5-propylpyrimidin-2-yl)piperidin-4-yl)propoxy)phenyl)-1-(3-(((1,3-dihydroxy-2-(hydroxymethyl)propan-2-yl)amino)methyl)azetidin-1-yl)ethan-1-one] is ≤ 100 nM; for `CCCc1cnc(N2CCC(CCCOc3cc(F)c(CC(=O)N4CC(CNCCNC(=O)NC(CO)(CO)CO)C4)c(F)c3)CC2)nc1` [Compound A47, 1-(2-(((1-(2-(2,6-difluoro-4-(3-(1-(5-propylpyrimidin-2-yl)piperidin-4-yl)propoxy)phenyl)acetyl)azetidin-3-yl)methyl)amino)ethyl)-3-(1,3-dihydroxy-2-(hydroxymethyl)propan-2-yl)urea] it is 100 to 1000 nM; for `CCCc1cnc(N2CCC(CCCOc3cc(F)c(CC(=O)N4CC(CNC[C@H](O)[C@@H](O)[C@H](O)[C@H](O)CO)C4)c(F)c3)CC2)nc1` [Compound A48, 2-(2,6-difluoro-4-(3-(1-(5-propylpyrimidin-2-yl)piperidin-4-yl)propoxy)phenyl)-1-(3-((((2S,3R,4R,5R)-2,3,4,5,6-pentahydroxyhexyl)amino)methyl)azetidin-1-yl)ethan-1-one] it is ≤ 100 nM.
The figure for `COCc1cnc(N2CCC(CCCOc3ccc(CC(=O)N4CC(CNCC[C@@H](O)C[C@@H](O)CC(=O)O)C4)c(F)c3)CC2)nc1` [Compound A52, (3R,5R)-7-[[1-[2-[2-fluoro-4-[3-[1-[5-(methoxymethyl)pyrimidin-2-yl]-4-piperidyl]propoxy]phenyl]acetyl]azetidin-3-yl]methylamino]-3,5-dihydroxy-heptanoic acid] is 100 to 1000 nM; for `COCc1cnc(N2CCC(CCCOc3ccc(CC(=O)N4CC(CNC[C@H](O)[C@@H](O)[C@H](O)[C@H](O)CO)C4)c(F)c3)CC2)nc1` [Compound A53, 2-[2-fluoro-4-[3-[1-[5-(methoxymethyl)pyrimidin-2-yl]-4-piperidyl]propoxy]phenyl]-1-[3-[[[(2S,3R,4R,5R)-2,3,4,5,6-pentahydroxyhexyl]amino]methyl]azetidin-1-yl]ethanone] it is 100 to 1000 nM.
`COC(=O)c1cnc(N2CCC(CCCOc3ccc(CC(=O)N4CC(CNC[C@H](O)[C@@H](O)[C@H](O)[C@H](O)CO)C4)c(F)c3)CC2)nc1` [Compound A54, methyl 2-[4-[3-[3-fluoro-4-[2-oxo-2-[3-[[[(2S,3R,4R,5R)-2,3,4,5,6-pentahydroxyhexyl]amino]methyl]azetidin-1-yl]ethyl]phenoxy]propyl]-1-piperidyl]pyrimidine-5-carboxylate] yielded an EC50 of 100 to 1000 nM.
The compound `O=C(Cc1ccc(OCCCC2CCN(c3ncc(CO)cn3)CC2)cc1F)N1CC(CNC[C@H](O)[C@@H](O)[C@H](O)[C@H](O)CO)C1` [Compound A55, 2-[2-fluoro-4-[3-[1-[5-(hydroxymethyl)pyrimidin-2-yl]-4-piperidyl]propoxy]phenyl]-1-[3-[[[(2S,3R,4R,5R)-2,3,4,5,6-pentahydroxyhexyl]amino]methyl]azetidin-1-yl]ethanone] yielded a concentration for a half-maximal effect (EC50) of 1000 to 10000 nM.

What is called EC50 is the concentration at which the effect is half-maximal. Read a low EC50 as a more potent agent.
